Like-named read-outs stand apart in the source and are kept apart here.
Legend:
Format in all cases: biochemical
recombinant human DPP8 = target: T1, recombinant human DPP8 (Homo sapiens, UniProt Q6V1X1); test: DPP8 inhibition, fluorogenic substrate Z-Ala-Pro-AMC
T1 construct: purchased PBS Bioscience
Description: The compounds according to the present technology were evaluated in terms of the inhibitory effect on the activity of dipeptidyl peptidases including FAP by using a substrate producing fluorescent substances upon enzymatic decomposition. The test was conducted at 25° C. to get a final reaction volume of 100 μL in a 96 black well plate. […] Briefly, the test compounds were dissolved in dimethyl sulfoxide (DMSO) at a concentration of 20 mM and then subjected to serial dilution, thereby creating an 8 point curve. As for the control group, a 6 point curve created by serial dilution of Talabostat in the same buffer solution was used. Fluorescence intensity was measured using a microplate reader (Flexstation3, Molecular Devices) under the wavelength condition exciting at 380 nm and reading the emission at 460 nm. The inhibitory effect of the test compounds was measured as a decrease (%) in the signal rate as compared to the control group without any inhibitor. Data was fixed to a logistic model with four variables and IC50 value was calculated using GraphPad Prism program. As for recombinant human DPP4 (R&D Systems), 25 mM tris (pH 8.0) buffer as a buffer solution and H-Gly-Pro-AMC (Bachem) as a substrate were used. As for recombinant human DPP7 (R&D Systems), 25 mM MES (pH 6.0) buffer as a buffer solution and Lys-Pro-AMC (Bachem) as a substrate were used. As for recombinant human DPP8 (PBS Bioscience), as a buffer solution, a 10 mM tris (pH 7.4) buffer comprising 10 mM of magnesium chloride and 0.05% of Tween 20, and Z-Ala-Pro-AMC (BPS Bioscience) as a substrate were used. As for recombinant human DPP9 (R&D Systems), a 25 mM tris (pH 8.0) buffer as a buffer solution and H-Gly-Pro-AMC (Bachem) as a substrate were used. As for recombinant human PREP (R&D System), as a buffer solution, a 25 mM tris (pH 7.5) buffer comprising 250 mM sodium chloride and 2.5 mM DTT (Dithiolthreitol), and Z-Gly-Pro-AMC (Bachem) as a substrate were used. The evaluation was made by using 10 ng of DPP4, PDD7, and PREP, 20 ng of DPP8, and 50 ng of DPP9 based on the final reaction. In the evaluation of DPP4, the test compounds were subjected to serial dilution in a buffer under the condition containing up to 0.1% of DMSO. In the evaluation of DPP7, DPP8, DPP9, and PREP, the test compounds were subjected to serial dilution in each buffer under the condition containing up to 0.5% of DMSO.

Recombinant human FAP = target: T2, Recombinant human FAP (Homo sapiens, UniProt Q12884); test: FAP inhibition, fluorogenic substrate Z-Gly-Pro-AMC
T2 construct: purchased R&D systems
T2 sequence (Q12884 1-760): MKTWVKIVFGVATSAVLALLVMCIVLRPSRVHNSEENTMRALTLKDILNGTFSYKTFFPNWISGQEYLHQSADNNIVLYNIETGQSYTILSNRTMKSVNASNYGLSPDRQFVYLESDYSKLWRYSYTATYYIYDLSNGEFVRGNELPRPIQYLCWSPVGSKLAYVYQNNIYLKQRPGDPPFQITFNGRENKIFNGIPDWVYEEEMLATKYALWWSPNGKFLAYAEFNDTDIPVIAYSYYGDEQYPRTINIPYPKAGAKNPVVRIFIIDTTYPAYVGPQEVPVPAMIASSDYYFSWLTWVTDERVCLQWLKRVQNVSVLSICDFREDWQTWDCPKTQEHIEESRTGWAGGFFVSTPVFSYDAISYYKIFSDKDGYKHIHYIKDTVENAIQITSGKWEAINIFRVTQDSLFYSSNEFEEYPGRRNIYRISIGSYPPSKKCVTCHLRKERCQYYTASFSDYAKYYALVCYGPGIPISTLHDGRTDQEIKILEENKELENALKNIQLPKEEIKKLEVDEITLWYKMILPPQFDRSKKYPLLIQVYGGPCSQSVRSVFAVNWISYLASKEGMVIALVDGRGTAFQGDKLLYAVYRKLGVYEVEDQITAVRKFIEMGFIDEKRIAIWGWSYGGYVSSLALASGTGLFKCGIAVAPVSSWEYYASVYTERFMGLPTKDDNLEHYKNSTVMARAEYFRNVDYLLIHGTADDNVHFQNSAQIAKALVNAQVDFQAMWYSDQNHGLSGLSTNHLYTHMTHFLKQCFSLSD
In short: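 Recombinant human FAP, 10 ng per reaction, in 50 mM Tris pH 7.5 with 1 M NaCl and 1 mg/ml BSA at 25° C; substrate Z-Gly-Pro-AMC, ≤0.1% DMSO. AMC fluorescence read at ex 380/em 460 nm; % signal-rate decrease vs no-inhibitor control, 8-point curves fitted to a four-parameter logistic for IC50.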

recombinant human PREP = target: T3, recombinant human PREP (Homo sapiens, UniProt P48147); test: PREP inhibition, fluorogenic substrate Z-Gly-Pro-AMC; details: Inhibitory Activity (IC50, nM) PREP, 25° C., Z-Gly-Pro-AMC substrate
T3 construct: purchased R&D System
T3 sequence (P48147 1-710): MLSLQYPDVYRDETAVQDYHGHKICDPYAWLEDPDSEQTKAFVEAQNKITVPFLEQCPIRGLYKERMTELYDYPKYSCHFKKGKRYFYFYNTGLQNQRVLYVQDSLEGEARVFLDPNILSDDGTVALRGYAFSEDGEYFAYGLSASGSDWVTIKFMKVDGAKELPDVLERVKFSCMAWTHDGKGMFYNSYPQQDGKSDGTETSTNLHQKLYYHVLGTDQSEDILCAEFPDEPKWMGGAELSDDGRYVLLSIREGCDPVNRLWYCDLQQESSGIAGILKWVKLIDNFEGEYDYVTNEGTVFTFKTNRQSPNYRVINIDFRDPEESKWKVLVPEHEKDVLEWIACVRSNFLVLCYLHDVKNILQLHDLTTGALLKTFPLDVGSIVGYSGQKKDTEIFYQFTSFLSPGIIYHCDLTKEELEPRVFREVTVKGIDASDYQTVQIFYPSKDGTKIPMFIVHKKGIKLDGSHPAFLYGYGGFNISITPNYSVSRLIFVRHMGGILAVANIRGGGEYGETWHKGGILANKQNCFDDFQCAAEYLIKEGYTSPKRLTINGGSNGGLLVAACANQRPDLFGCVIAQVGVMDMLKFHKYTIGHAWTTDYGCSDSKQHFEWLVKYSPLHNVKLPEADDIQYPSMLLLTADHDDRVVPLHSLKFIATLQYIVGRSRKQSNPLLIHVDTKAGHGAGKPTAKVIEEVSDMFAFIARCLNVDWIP
In short: (§1)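 Enzyme per reaction: 50 ng DPP9, 20 ng DPP8, 10 ng each DPP7 and PREP. Compounds were serially diluted (8 points, up to 0.5% DMSO) and incubated at 25 °C.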

recombinant human DPP7 = target: T4, recombinant human DPP7 (Homo sapiens, UniProt Q9UHL4); test: DPP7 inhibition, fluorogenic substrate Lys-Pro-AMC
T4 construct: purchased R&D Systems
In short: as §1

recombinant human DPP9 = target: T5, recombinant human DPP9 (Homo sapiens, UniProt Q86TI2); test: DPP9 inhibition, fluorogenic substrate H-Gly-Pro-AMC
T5 construct: purchased R&D Systems
In short: as §1

DPP4 = DPP4 (Homo sapiens, UniProt P27487); test: DPP4 inhibition, fluorogenic substrate H-Gly-Pro-AMC; parameters: purchased R&D Systems; details: recombinant human DPP4
[1] = 25° C., Z-Ala-Pro-AMC substrate
[2] = 25° C., Z-Gly-Pro-AMC substrate
[3] = 25° C., H-Gly-Pro-AMC substrate

T5 sequence (Q86TI2 whole entry): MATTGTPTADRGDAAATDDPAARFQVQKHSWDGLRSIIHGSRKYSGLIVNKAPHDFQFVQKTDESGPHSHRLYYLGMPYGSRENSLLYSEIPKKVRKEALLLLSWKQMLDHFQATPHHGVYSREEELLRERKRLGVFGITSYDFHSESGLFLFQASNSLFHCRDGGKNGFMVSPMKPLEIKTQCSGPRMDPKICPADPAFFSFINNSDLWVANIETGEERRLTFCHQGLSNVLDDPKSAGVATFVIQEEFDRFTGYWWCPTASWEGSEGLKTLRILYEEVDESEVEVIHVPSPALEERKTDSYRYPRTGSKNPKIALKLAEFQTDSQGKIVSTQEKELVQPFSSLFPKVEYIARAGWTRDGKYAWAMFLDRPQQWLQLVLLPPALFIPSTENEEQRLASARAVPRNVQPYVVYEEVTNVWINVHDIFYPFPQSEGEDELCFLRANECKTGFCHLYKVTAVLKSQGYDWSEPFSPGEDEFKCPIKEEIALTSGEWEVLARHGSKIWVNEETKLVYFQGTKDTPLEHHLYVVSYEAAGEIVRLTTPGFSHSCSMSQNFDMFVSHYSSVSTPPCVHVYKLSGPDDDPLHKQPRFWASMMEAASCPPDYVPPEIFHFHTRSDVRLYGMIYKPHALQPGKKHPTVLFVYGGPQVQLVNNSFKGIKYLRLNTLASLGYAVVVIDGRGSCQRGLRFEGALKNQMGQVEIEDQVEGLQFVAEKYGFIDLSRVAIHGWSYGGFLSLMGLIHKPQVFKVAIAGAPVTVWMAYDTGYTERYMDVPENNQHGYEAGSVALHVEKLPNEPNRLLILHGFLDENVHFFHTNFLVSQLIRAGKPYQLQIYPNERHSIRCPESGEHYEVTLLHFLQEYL
T1 sequence (Q6V1X1 whole entry): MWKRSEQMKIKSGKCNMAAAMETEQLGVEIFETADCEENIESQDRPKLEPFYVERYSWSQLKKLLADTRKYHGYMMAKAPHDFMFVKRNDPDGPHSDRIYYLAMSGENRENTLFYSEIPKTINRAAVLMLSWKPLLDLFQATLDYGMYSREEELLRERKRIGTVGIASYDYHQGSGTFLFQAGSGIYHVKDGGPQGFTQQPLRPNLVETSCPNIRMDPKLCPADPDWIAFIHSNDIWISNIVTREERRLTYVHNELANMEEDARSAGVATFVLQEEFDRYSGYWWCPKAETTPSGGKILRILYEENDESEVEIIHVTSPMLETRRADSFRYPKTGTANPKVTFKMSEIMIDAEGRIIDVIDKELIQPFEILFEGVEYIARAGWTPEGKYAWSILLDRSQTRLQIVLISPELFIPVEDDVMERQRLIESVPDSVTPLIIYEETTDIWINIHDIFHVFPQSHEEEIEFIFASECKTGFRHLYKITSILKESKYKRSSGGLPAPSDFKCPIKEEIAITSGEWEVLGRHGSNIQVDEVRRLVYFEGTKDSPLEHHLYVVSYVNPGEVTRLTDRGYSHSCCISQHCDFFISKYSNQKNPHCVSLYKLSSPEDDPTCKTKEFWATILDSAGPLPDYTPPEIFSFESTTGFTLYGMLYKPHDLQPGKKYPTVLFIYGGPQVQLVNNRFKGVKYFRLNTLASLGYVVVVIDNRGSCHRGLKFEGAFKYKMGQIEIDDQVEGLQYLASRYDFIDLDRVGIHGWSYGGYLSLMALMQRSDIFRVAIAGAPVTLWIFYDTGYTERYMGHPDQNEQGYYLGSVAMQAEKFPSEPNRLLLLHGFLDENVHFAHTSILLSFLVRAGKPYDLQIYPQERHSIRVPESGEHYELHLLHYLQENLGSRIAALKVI
DPP4, sequence (P27487 whole entry): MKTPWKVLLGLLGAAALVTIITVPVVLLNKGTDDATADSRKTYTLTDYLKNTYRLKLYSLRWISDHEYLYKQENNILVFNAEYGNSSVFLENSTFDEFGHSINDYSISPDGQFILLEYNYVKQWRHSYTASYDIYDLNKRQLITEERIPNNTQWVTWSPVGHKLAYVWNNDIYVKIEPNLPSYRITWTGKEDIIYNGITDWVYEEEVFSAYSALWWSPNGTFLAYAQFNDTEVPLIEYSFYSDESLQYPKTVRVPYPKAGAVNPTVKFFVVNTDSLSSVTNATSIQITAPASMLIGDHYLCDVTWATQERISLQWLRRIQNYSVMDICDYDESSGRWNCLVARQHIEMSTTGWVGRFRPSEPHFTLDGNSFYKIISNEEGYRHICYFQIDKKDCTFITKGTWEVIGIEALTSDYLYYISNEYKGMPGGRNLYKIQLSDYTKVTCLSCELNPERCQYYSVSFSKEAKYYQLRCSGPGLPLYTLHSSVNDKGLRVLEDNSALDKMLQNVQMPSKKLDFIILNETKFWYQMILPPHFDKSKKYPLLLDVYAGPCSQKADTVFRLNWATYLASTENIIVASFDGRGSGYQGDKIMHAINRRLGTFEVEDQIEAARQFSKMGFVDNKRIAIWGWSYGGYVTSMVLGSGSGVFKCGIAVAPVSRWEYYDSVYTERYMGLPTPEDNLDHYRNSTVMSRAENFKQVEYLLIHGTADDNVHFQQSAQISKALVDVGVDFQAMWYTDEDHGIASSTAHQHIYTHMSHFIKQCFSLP

| SMILES | IC50 (recombinant human DPP8; [1]) [µM] | IC50 (Recombinant human FAP; [2]) [µM] | IC50 (recombinant human PREP) [nM] | IC50 (recombinant human DPP7) [µM] | IC50 (recombinant human DPP9; [3]) [µM] | IC50 (recombinant human DPP8; recombinant human DPP8) [µM] | IC50 (Recombinant human FAP; recombinant human FAP, substrate Z-Gly-Pro-AMC) [µM] | IC50 (recombinant human DPP7; recombinant human DPP7) [µM] | IC50 (DPP4) [µM] | IC50 (recombinant human DPP9; recombinant human DPP9) [µM] |
| --- | --- | --- | --- | --- | --- | --- | --- | --- | --- | --- |
| CN(c1cnc2ccccc2c1)[C@H]1CCN(CC(=O)N2CCC[C@H]2C#N)C1 [Example 142, (2S)-1-[2-[(3S)-3-[methyl(3-quinolyl)amino]pyrrolidin-1-yl]acetyl]pyrrolidine-2-carbonitrile] | ≥ 100 | 0.0026 | 4510 | 4.99 | 71 |  |  |  |  |  |
| CN(c1ccc2cccnc2c1)[C@H]1CCN(CC(=O)N2CCC[C@H]2C#N)C1 [Example 146, (2S)-1-[2-[(3S)-3-[methyl(7-quinolyl)amino]pyrrolidin-1-yl]acetyl]pyrrolidine-2-carbonitrile] | ≥ 100 | 0.0066 | 4590 | 0.916 | ≥ 100 |  |  |  |  |  |
| Cc1c(N(C)[C@H]2CCN(CC(=O)N3CCC[C@H]3C#N)C2)cnc2ccccc12 [Example 149, (2S)-1-[2-[(3S)-3-[methyl-(4-methyl-3-quinolyl)amino]pyrrolidin-1-yl]acetyl]pyrrolidine-2-carbonitrile] | ≥ 100 | 0.0099 | 1620 | 3.97 | 49.1 |  |  |  |  |  |
| Cc1ccc2ncc(N(C)[C@H]3CCN(CC(=O)N4CCC[C@H]4C#N)C3)cc2c1 [Example 150, (2S)-1-[2-[(3S)-3-[methyl-(6-methyl-3-quinolyl)amino]pyrrolidin-1-yl]acetyl]pyrrolidine-2-carbonitrile] | ≥ 100 | 0.0011 | 2640 | 1.83 | 39.6 |  |  |  |  |  |
| COc1ccc2ncc(N(C)[C@H]3CCN(CC(=O)N4CCC[C@H]4C#N)C3)cc2c1 [Example 152, (S)-1-(2-((S)-3-((6-methoxyquinolin-3-yl)(methyl)amino)pyrrolidin-1-yl)acetyl)pyrrolidine-2-carbonitrile] | ≥ 100 | 0.0025 | 4130 | 1.66 | 29 |  |  |  |  |  |
| COc1ccc2nc(C)cc(OC3CCN(CC(=O)N4C[C@@H](F)C[C@H]4C#N)CC3)c2c1 [Example 424, (2S,4S)-4-fluoro-1-[2-[4-[(6-methoxy-2-methyl-4-quinolyl)oxy]-1-piperidyl]acetyl]pyrrolidine-2-carbonitrile] |  |  |  |  |  | 13.1 | 0.0023 | 3.89 | > 10 | 48.9 |

Results, then the molecule that gave them:

| IC50 (recombinant human DPP8; [1]) [µM] | IC50 (Recombinant human FAP; [2]) [µM] | IC50 (recombinant human PREP) [nM] | IC50 (recombinant human DPP7) [µM] | IC50 (recombinant human DPP9; [3]) [µM] | IC50 (recombinant human DPP8; recombinant human DPP8) [µM] | IC50 (Recombinant human FAP; recombinant human FAP, substrate Z-Gly-Pro-AMC) [µM] | IC50 (recombinant human DPP7; recombinant human DPP7) [µM] | IC50 (DPP4) [µM] | IC50 (recombinant human DPP9; recombinant human DPP9) [µM] | SMILES |
| --- | --- | --- | --- | --- | --- | --- | --- | --- | --- | --- |
| ≥ 100 | 0.0248 | 7970 | 3.7 | ≥ 100 |  |  |  |  |  | CN(c1cnc2ccccc2c1)[C@@H]1CCN(CC(=O)N2CCC[C@H]2C#N)C1 [Example 138, (2S)-1-[2-[(3R)-3-[methyl(3-quinolyl)amino]pyrrolidin-1-yl]acetyl]pyrrolidine-2-carbonitrile] |
| ≥ 100 | 0.0167 | 5020 | 13 | 89 |  |  |  |  |  | CN(c1cccc2ncccc12)[C@@H]1CCN(CC(=O)N2CCC[C@H]2C#N)C1 [Example 139, (2S)-1-[2-[(3R)-3-[methyl(5-quinolyl)amino]pyrrolidin-1-yl]acetyl]pyrrolidine-2-carbonitrile] |
| ≥ 100 | 0.0157 | 4260 | 1.4 | 32.6 |  |  |  |  |  | CN(c1ccc2ncccc2c1)[C@@H]1CCN(CC(=O)N2CCC[C@H]2C#N)C1 [Example 140, (2S)-1-[2-[(3R)-3-[methyl(6-quinolyl)amino]pyrrolidin-1-yl]acetyl]pyrrolidine-2-carbonitrile] |
| 85 | 0.006 | 3360 | 19.3 | 23.8 |  |  |  |  |  | CN(c1cccc2ncccc12)[C@H]1CCN(CC(=O)N2CCC[C@H]2C#N)C1 [Example 144, (2S)-1-[2-[(3S)-3-[methyl(5-quinolyl)amino]pyrrolidin-1-yl]acetyl]pyrrolidine-2-carbonitrile] |
| 19.1 | 0.0027 | 2690 | 2.03 | 16.8 |  |  |  |  |  | CN(c1ccc2ncccc2c1)[C@H]1CCN(CC(=O)N2CCC[C@H]2C#N)C1 [Example 145, (2S)-1-[2-[(3S)-3-[methyl(6-quinolyl)amino]pyrrolidin-1-yl]acetyl]pyrrolidine-2-carbonitrile] |
| 86.6 | 0.0073 | 3810 | 10.8 | 29.3 |  |  |  |  |  | CN(c1cccc2cnccc12)[C@H]1CCN(CC(=O)N2CCC[C@H]2C#N)C1 [Example 148, (2S)-1-[2-[(3S)-3-[5-isoquinolyl(methyl)amino]pyrrolidin-1-yl]acetyl]pyrrolidine-2-carbonitrile] |
| 12.3 | 0.0016 | 3090 | 2.55 | 23.9 |  |  |  |  |  | CN(c1cnc2ccc(F)cc2c1)[C@H]1CCN(CC(=O)N2CCC[C@H]2C#N)C1 [Example 151, (S)-1-(2-((S)-3-((6-fluoroquinolin-3-yl)(methyl)amino)pyrrolidin-1-yl)acetyl)pyrrolidine-2-carbonitrile] |
